# Measured values from patent publication EP0366385A1, “Guanine derivatives having antiviral activity and their pharmaceutically acceptable salts” (THE WELLCOME FOUNDATION LIMITED, priority 1988, dated 1990).
# Test system: HIV
# Experiment: Antiviral activity against HIV (method of Mitsuya et al.)
# Format: cell-based
# Conditions: Human immunodeficiency virus 1, read-out: IC₅₀
# Experimental: The title compound of Example 1G (L-valine ester) and the title compound of Example 1F (the 1S, 4R enantiomeric form of carbovir) were tested for activity against HIV generally in accordance with the method described by Mitsuya et al, Proc. Natl. Acad. Sci. Vol. 82, pp 7096-7100, Oct. 1985 and found to have activity against HIV at the following concentrations
structure (smiles),measurement,value
"Nc1nc2c(ncn2[C@H]2C=C[C@@H](CO)C2)c(=O)[nH]1 [Example 1F, (1R, 4S)-9-(4-Hydroxymethyl-2-cyclopentenyl)guanine]",IC50,2.5 µM
